{"source": "patent US20180125800A1", "about": "“Stable Formulation for Parenteral Administration of Tapentadol” (Gruenenthal GmbH, priority 2015, published 2018)", "origin": "cited, not measured here", "conditions": "more pronounced at higher pH values"}
{"smiles": "CC[C@@H](c1cccc(O)c1)[C@@H](C)CN(C)C", "note": "[Tapentadol, (1R,2R)-3-(3-dimethylamino-1-ethyl-2-methyl-propyl)-phenol]", "values": [{"measurement": "antimicrobial properties", "value": "exhibits antimicrobial properties"}]}
